In publication PMC3578785, “Improved BM212 MmpL3 Inhibitor Analogue Shows Efficacy in Acute Murine Model of Tuberculosis Infection” (PLoS ONE, 2013):
Values after ≈ are worked out from the molar mass of the structure shown. Where two headings read alike, the source gives them in different places.

What was measured:
in vitro [1] = assay type: in vitro ADME, human; conditions: pH 7.4; for Cli human: 0.5 µM; for half-life: human microsomes, read-out: t1/2 in human microsomes
Experimental: (§1) Protocol S6. Microsomal fraction stability experimental procedure.
(§2) Pooled mouse and human liver microsomes are purchased from Xenotech. Microsomes (final protein concentration 0.5 mg/mL, MgCl2 (final concentration = 5 mM) and test compound (final substrate concentration = 0.5 µM; final DMSO concentration = 0.5%) in 0.1M phosphate buffer pH 7.4 were pre-incubated at 37°C prior to the addition of NADPH (final concentration = 1 mM) to initiate the reaction. The final incubation volume was 600 µL. A control incubation was included for each compound tested where 0.1 M phosphate buffer pH 7.4 is added instead of NADPH (minus NADPH). One control compound was included with each species. All incubations were performed singularly for each test compound. Each compound was incubated for 30 minutes and samples (90 µL) of incubate were taken at 0, 5, 15, 20 and 30 min. The control (minus NADPH) was sampled at 30 min only. The reactions were stopped by the addition of sample to 200 µL Acetonitrile:Methanol 3:1 containing internal standard. The terminated samples were centrifuged at 2.500 rpm for 20 min at 4°C to precipitate the protein.
(§3) Quantitative Analysis: following protein precipitation, the samples were analyzed using specific […]
(§4) Data Analysis: from a plot of ln peak area ratio (compound peak area/internal standard peak area) against time, the gradient of the line was determined. Subsequently, half-life and intrinsic clearance were calculated using the equations below:
(§5) Elimination rate constant (k) = (- gradient)
(§6) Half life (t1/2) (min) = […]
(§7) Intrinsic Clearance (CLint) (mL/min/g protein) = […] where V=Incubation volume mL/g microsomal protein.

HepG2 cells = conditions: human, 48 h
in vitro [2] = conditions: African green monkey
in vitro [3] = assay type: in vitro ADME, mouse; conditions: pH 7.4; for Cli mouse: 0.5 µM; for half-life: mouse microsomes, read-out: t1/2 in mouse microsomes
Experimental: as §1, §2, §3, §4, §5, §6, §7

[4] = target: human serum albumin (HSA) (Homo sapiens, UniProt P02768); assay type: in vitro ADME; conditions: human, pH 7.4
Sequence of human serum albumin (HSA) (P02768 25-609): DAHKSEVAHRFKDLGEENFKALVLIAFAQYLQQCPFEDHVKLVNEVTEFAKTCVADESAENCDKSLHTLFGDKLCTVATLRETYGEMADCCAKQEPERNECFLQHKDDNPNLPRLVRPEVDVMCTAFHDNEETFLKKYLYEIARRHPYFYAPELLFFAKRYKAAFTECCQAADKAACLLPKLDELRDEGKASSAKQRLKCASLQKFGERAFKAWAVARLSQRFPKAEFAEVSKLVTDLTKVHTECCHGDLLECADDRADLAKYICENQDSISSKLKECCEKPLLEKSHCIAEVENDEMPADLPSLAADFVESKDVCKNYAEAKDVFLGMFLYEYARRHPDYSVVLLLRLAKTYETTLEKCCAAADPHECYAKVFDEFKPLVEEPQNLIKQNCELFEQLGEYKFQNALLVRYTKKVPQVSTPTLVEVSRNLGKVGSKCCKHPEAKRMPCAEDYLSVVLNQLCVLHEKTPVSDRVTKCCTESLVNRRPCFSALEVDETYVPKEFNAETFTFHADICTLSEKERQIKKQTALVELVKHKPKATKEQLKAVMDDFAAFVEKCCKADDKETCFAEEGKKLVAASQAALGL
Experimental: Standard physical chemical property determination methods were used. Please see the Supporting Information for details.
Protocol S4. Determination of compounds binding to human serum albumin (HSA).
The determination of compounds binding to human serum albumin (HSA) was carried out by retention time measurements using immobilized HSA HPLC columns obtained from Chiral Technologies Ltd, France. The column dimensions were 50x3 mm. The mobile phase was 50 mM ammonium acetate buffer pH 7.4 and HPLC grade 2-propanol. HPLC Method: flow rate 1.8 ml/min applying 2.5 min 2-propanol gradient up to 30%. From 2.5 min to 4.5 min the 2-propanol concentration in the mobile phase was kept at 30%. From 4.5 min to 4.6 min, the 2-propanol concentration was decreased to 0% and kept like that until the end of the gradient run which was 6 min. A calibration set of compounds was first analyzed for which plasma protein binding data were available: Warfarin, Nizatidine, Bromazepam, Carbamazepine, Budesonide, Nicardipine, Indomethacine, Piroxicam, Naproxen. The calculation of the HSA binding data expressed as %HSA was carried out as described previously.

M. tuberculosis H37Rv = assay: microbe, parasite or virus in culture; assay type: cell-based; conditions: Mycobacterium tuberculosis, aerobic conditions
in vitro [5] = conditions: plasma, pH 7.4

Row | Compound | Cli human (in vitro [1]) [mL/min/g] | half-life (in vitro [1]) [min] | Tox50, cytotoxicity in HepG2 cells (HepG2 cells) [µM] | CC50 at 72 h (in vitro [2]) [µM] | Cli mouse (in vitro [3]) [mL/min/g] | half-life (in vitro [3]) [min] | HSA (%) binding [4] [%] | chromatographic logD (physchem; pH 2) | chromatographic logD (physchem; pH 7.4) | chromatographic logD (physchem; pH 10.5) | MIC (M. tuberculosis H37Rv) [µM] | fraction unbound at 1 µM (in vitro [5]) | melting point [°C]
1 | CCc1ccc(-c2cc(CN3CCOCC3)c(C)n2-c2ccc(OC)cc2)cc1 [Compound 19, 2-Methyl-3-[(morpholin-4-yl)-methyl]-5-[4-(ethyl)phenyl]-1-[4-(methoxy)phenyl]-1H-pyrrole] | 1.71 | > 30 | 5.7 | 30 | 9.45 | < 5 | 96.65 | 1.21 | 3.99 | 4.5 | 0.3 (≈ 0.117 µg/mL) | 0.003 | 101
2 | CCCc1ccc(-c2cc(CN3CCOCC3)c(C)n2-c2ccc(OC)cc2)cc1 [Compound 20, 2-Methyl-3-[(morpholin-4-yl)-methyl]-5-[4-(propyl)phenyl]-1-[4-(methoxy)phenyl]-1H-pyrrole] | 0.61 | > 30 | 14.3 | > 256 | 5.75 | 10.9 | 97.17 | 1.4 | 4.46 | 4.93 | 0.3 (≈ 0.121 µg/mL) | < 0.001 | 107
3 | Cc1ccc(-c2cc(CN3CCOCC3)c(C)n2-c2ccc(F)cc2)cc1 [Compound 5, 2-Methyl-3-[(morpholin-4-yl)-methyl]-5-[4-(methyl)phenyl]-1-[4-(fluoro)phenyl]-1H-pyrrole] | <0.5 | > 30 | 20.08 | > 351 | – | 20.4 | 96.72 | 1.12 | 3.86 | 4.26 | 0.3 (≈ 0.109 µg/mL) | 0.005 | 133 to 135
4 | Cc1c(CN2CCN(C)CC2)cc(-c2ccc(Cl)cc2)n1-c1ccc(Cl)cc1 [Compound 1] | – | – | 7.8 | – | 0.7 ± 0.1 | > 30 | 98.07 | 0.7 | 4.51 | 5.01 | 5 (≈ 2.07 µg/mL) | 0.002 | –
5 | COc1ccc(-c2cc(CN3CCSCC3)c(C)n2-c2ccc(F)cc2)cc1 [Compound 3] | – | – | – | > 302 | 18.76 | < 5 | 96.82 | 1.07 | 3.97 | 4.62 | 0.16 to 0.2 (≈ 0.0634 to 0.0793 µg/mL) | 0.004 | –
6 | COc1ccc(-c2cc(CN3CCOCC3)c(C)n2-c2ccc(F)cc2)cc1 [Compound 6, 2-Methyl-3-[(morpholin-4-yl)-methyl]-5-[4-(methoxy)phenyl]-1-[4-(fluoro)phenyl]-1H-pyrrole] | 0.5 ± 0 | > 30 | – | 58.7 | 4.7 ± 0.1 | 15.9 | 95.58 | 0.93 | 3.32 | 3.73 | 0.6 (≈ 0.228 µg/mL) | 0.017 | 169
7 | Cc1ccc(-c2cc(CN3CCSCC3)c(C)n2-c2ccc(F)cc2)cc1 [Compound 2] | – | – | 24.01 | 179 | 7.2 ± 0.2 | 8.2 | 97.91 | 1.31 | 4.54 | 5.08 | 0.16 to 0.2 (≈ 0.0609 to 0.0761 µg/mL) | < 0.001 | –
